Values quoted from earlier work, collected in patent US20110208161A1, “INT[…] […] TO THE CENTRAL NERVOUS SYSTEM” (priority 2009, published 2011).
Where a SMILES comes first, the peptide text is derived from it.

Biological target: T1, μ receptor (Oryctolagus cuniculus, UniProt G1TAQ8)
T1 construct: host or cells: brain tissue at the fourth ventricle, in vivo
Conditions: infusion into the fourth ventricle

T1 sequence (G1TAQ8 1-401): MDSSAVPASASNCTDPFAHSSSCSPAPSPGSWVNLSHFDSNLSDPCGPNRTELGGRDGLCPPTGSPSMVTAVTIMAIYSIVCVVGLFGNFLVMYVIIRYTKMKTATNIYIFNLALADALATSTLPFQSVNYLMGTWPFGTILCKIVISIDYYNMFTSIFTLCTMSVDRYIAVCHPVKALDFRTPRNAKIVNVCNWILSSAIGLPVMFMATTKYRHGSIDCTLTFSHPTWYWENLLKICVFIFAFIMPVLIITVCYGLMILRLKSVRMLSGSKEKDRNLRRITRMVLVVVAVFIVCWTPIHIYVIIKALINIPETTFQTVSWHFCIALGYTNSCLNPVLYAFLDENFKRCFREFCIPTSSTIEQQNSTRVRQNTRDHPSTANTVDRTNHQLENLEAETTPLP

## NC(=O)[C@@H]1CCCN1C(=O)[C@H](Cc1ccccc1)NC(=O)[C@@H]1CCCN1C(=O)[C@@H](N)Cc1ccc(O)cc1 [morphiceptin] (H-YPFP-NH2)
  effect on spinal cord nociceptive transmission: attenuate spinal cord nociceptive transmission
